Columns and labels:
[1] = tested on: ENR+CD organoids (ISC to Paneth cell differentiation); assay: Primary screen: CCh-stimulated lysozyme secretion LYZ.S, 2.5-D 384-well ENR+CD organoid differentiation; type: cell-based, mouse; conditions: primary screen
Text: (§1) High-throughput screening.

[2] = tested on: ENR+CD organoids (ISC to Paneth cell differentiation); assay: Primary screen: basal (non-stimulated) lysozyme secretion LYZ.NS, 2.5-D 384-well ENR+CD organoid differentiation; type: cell-based, mouse
Text: as §1

ENR+CD organoids = assay: Primary screen: ATP (CellTiter-Glo 3D, CTG) cell number/viability, 2.5-D 384-well ENR+CD organoids; conditions: primary screen; for Z.CTG: standard z score;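 as to all read-outs here: compounds given at plating and again on day 3 over a 6-day differentiation from ENR+CV stem-cell-enriched precursors, ATP measured on day 6, plate median as control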
[3] = dose 0.08 uM, FC relative to plate median
[4] = dose 0.40 uM, FC relative to plate median
[5] = dose 2.00 uM, FC relative to plate median
[6] = dose 10.00 uM, FC relative to plate median
[7] = primary screen, dose 0.08 uM, FC relative to plate median
[8] = primary screen, dose 0.08 uM, standard z score
[9] = primary screen, dose 0.40 uM, FC relative to plate median
[10] = primary screen, dose 0.40 uM, standard z score
[11] = primary screen, dose 2.00 uM, FC relative to plate median
[12] = primary screen, dose 2.00 uM, standard z score
[13] = primary screen, dose 10.00 uM, FC relative to plate median
[14] = primary screen, dose 10.00 uM, standard z score
[15] = primary screen, standard z score, dose 0.08 uM
[16] = primary screen, standard z score, dose 0.40 uM
[17] = primary screen, standard z score, dose 2.00 uM
[18] = primary screen, standard z score, dose 10.00 uM
[19] = dose 0.08 uM, FC vs plate median
[20] = dose 0.40 uM, FC vs plate median
[21] = dose 2.00 uM, FC vs plate median
[22] = dose 10.00 uM, FC vs plate median

| Molecule | Dose.FC.LYZ.S ([1]; dose 0.08 uM) [log2 fold change] | Dose.FC.LYZ.S ([1]; dose 0.40 uM) [log2 fold change] | Dose.FC.LYZ.S ([1]; dose 2.00 uM) [log2 fold change] | Dose.FC.LYZ.S ([1]; dose 10.00 uM) [log2 fold change] | Dose.FC.LYZ.NS ([2]; primary screen, dose 0.08 uM) [log2 fold change] | Z.LYZ.NS (standard z score) ([2]; primary screen, dose 0.08 uM) | Dose.FC.LYZ.NS ([2]; primary screen, dose 0.40 uM) [log2 fold change] | Z.LYZ.NS (standard z score) ([2]; primary screen, dose 0.40 uM) | Dose.FC.LYZ.NS ([2]; primary screen, dose 2.00 uM) [log2 fold change] | Z.LYZ.NS (standard z score) ([2]; primary screen, dose 2.00 uM) | Dose.FC.LYZ.NS ([2]; primary screen, dose 10.00 uM) [log2 fold change] | Z.LYZ.NS (standard z score) ([2]; primary screen, dose 10.00 uM) | Dose.FC.CTG (ENR+CD organoids; dose 0.08 uM) [log2 fold change] | Z.CTG (standard z score) (ENR+CD organoids; dose 0.08 uM) | Dose.FC.CTG (ENR+CD organoids; dose 0.40 uM) [log2 fold change] | Z.CTG (standard z score) (ENR+CD organoids; dose 0.40 uM) | Dose.FC.CTG (ENR+CD organoids; dose 2.00 uM) [log2 fold change] | Z.CTG (standard z score) (ENR+CD organoids; dose 2.00 uM) | Dose.FC.CTG (ENR+CD organoids; dose 10.00 uM) [log2 fold change] | Z.CTG (standard z score) (ENR+CD organoids; dose 10.00 uM) | also measured |
| --- | --- | --- | --- | --- | --- | --- | --- | --- | --- | --- | --- | --- | --- | --- | --- | --- | --- | --- | --- | --- | --- |
| Cc1ccc(-n2nccn2)c(C(=O)N2CCN(c3nc4cc(Cl)ccc4o3)CC[C@H]2C)c1 [Suvorexant (MK-4305)] |  |  |  |  |  |  |  |  |  |  |  |  |  |  |  |  |  |  |  |  | Dose.FC.LYZ.S [1, 3]: 0.186 log2 fold change; Dose.FC.LYZ.S [1, 4]: 0.142 log2 fold change; Dose.FC.LYZ.S [1, 5]: 0.101 log2 fold change; Dose.FC.LYZ.S [1, 6]: 0.131 log2 fold change; Dose.FC.LYZ.NS [2, 7]: 0.204 log2 fold change; Z.LYZ.NS [2, 8]: 1.775; Dose.FC.LYZ.NS [2, 9]: 0.123 log2 fold change; Z.LYZ.NS [2, 10]: 1.073; Dose.FC.LYZ.NS [2, 11]: 0.123 log2 fold change; Z.LYZ.NS [2, 12]: 1.073; Dose.FC.LYZ.NS [2, 13]: 0.077 log2 fold change; Z.LYZ.NS [2, 14]: 0.670; Dose.FC.CTG (ENR+CD organoids; [3]): 0.192 log2 fold change; Z.CTG (ENR+CD organoids; dose 0.08 uM): 0.458; Dose.FC.CTG (ENR+CD organoids; [4]): 0.255 log2 fold change; Z.CTG (ENR+CD organoids; dose 0.40 uM): 0.609; Dose.FC.CTG (ENR+CD organoids; [5]): 0.375 log2 fold change; Z.CTG (ENR+CD organoids; dose 2.00 uM): 0.895; Dose.FC.CTG (ENR+CD organoids; [6]): 0.250 log2 fold change; Z.CTG (ENR+CD organoids; dose 10.00 uM): 0.597 |
| CCO.N#CC(=C(/N)Sc1ccccc1N)/C(C#N)=C(\N)Sc1ccccc1N [U0126-EtOH] | 0.114 | 0.075 | −0.071 | −0.165 | 0.099 | 0.859 | 0.019 | 0.163 | −0.045 | −0.389 | −0.117 | −1.021 | −0.350 | −0.835 | −0.514 | −1.227 | −0.476 | −1.138 | −0.790 | −1.887 |  |
| COc1ccc2c(c1)c(C1=C(c3c[nH]c4ccccc34)C(=O)NC1=O)cn2CCCN(C)C [Go 6983] |  |  |  |  |  | −0.046 |  | 0.114 |  | 0.791 |  | −0.798 |  | 0.050 |  | −0.085 |  | 0.138 |  | −0.433 | Dose.FC.LYZ.S (log2 fold change) ([1]; dose 0.08 uM): 0.021; Dose.FC.LYZ.S (log2 fold change) ([1]; dose 0.40 uM): 0.007; Dose.FC.LYZ.S (log2 fold change) ([1]; dose 2.00 uM): −0.010; Dose.FC.LYZ.S (log2 fold change) ([1]; dose 10.00 uM): −0.073; Dose.FC.LYZ.NS (log2 fold change) ([2]; primary screen, dose 0.08 uM): −0.005; Dose.FC.LYZ.NS (log2 fold change) ([2]; primary screen, dose 0.40 uM): 0.013; Dose.FC.LYZ.NS (log2 fold change) ([2]; primary screen, dose 2.00 uM): 0.091; Dose.FC.LYZ.NS (log2 fold change) ([2]; primary screen, dose 10.00 uM): −0.092; Dose.FC.CTG (log2 fold change) (ENR+CD organoids; dose 0.08 uM): 0.021; Dose.FC.CTG (log2 fold change) (ENR+CD organoids; dose 0.40 uM): −0.036; Dose.FC.CTG (log2 fold change) (ENR+CD organoids; dose 2.00 uM): 0.058; Dose.FC.CTG (log2 fold change) (ENR+CD organoids; dose 10.00 uM): −0.181 |
| CC(C)n1c(/C=C/C(O)CC(O)CC(=O)O)c(-c2ccc(F)cc2)c2ccccc21 (centres unmarked) [Fluvastatin Sodium] | 0.026 | −0.177 | −0.293 | −0.267 | 0.112 |  | −0.146 |  | −0.203 |  | −0.159 |  | −0.161 |  | −0.482 |  | −1.111 |  | −1.761 |  | Z.LYZ.NS [2, 15]: 0.979; Z.LYZ.NS [2, 16]: −1.275; Z.LYZ.NS [2, 17]: −1.764; Z.LYZ.NS [2, 18]: −1.388 |
| C[C@@H]1CCN(C(=O)CC#N)C[C@@H]1N(C)c1ncnc2[nH]ccc12 [Tofacitinib (CP-690550, Tasocitinib)] | 0.022 | 0.010 | 0.025 | 0.010 | −0.017 | −0.146 | −0.015 | −0.132 | −0.007 | −0.061 | −0.004 | −0.036 | 0.130 | 0.312 | 0.249 | 0.595 | 0.117 | 0.278 | 0.236 | 0.563 |  |
| O=C(c1cn(Cc2cncn2Cc2ccc(Br)cc2)cc1-c1cccc2ccccc12)N1CCOCC1 [LB42708] |  |  |  |  |  | −1.010 |  | −1.221 |  | −1.531 |  | −1.587 |  | −0.172 |  | −0.817 |  | −0.277 |  | −1.685 | Dose.FC.LYZ.S (log2 fold change) ([1]; dose 0.08 uM): −0.089; Dose.FC.LYZ.S (log2 fold change) ([1]; dose 0.40 uM): −0.144; Dose.FC.LYZ.S (log2 fold change) ([1]; dose 2.00 uM): −0.238; Dose.FC.LYZ.S (log2 fold change) ([1]; dose 10.00 uM): −0.233; Dose.FC.LYZ.NS (log2 fold change) ([2]; primary screen, dose 0.08 uM): −0.116; Dose.FC.LYZ.NS (log2 fold change) ([2]; primary screen, dose 0.40 uM): −0.140; Dose.FC.LYZ.NS (log2 fold change) ([2]; primary screen, dose 2.00 uM): −0.176; Dose.FC.LYZ.NS (log2 fold change) ([2]; primary screen, dose 10.00 uM): −0.182; Dose.FC.CTG (log2 fold change) (ENR+CD organoids; dose 0.08 uM): −0.072; Dose.FC.CTG (log2 fold change) (ENR+CD organoids; dose 0.40 uM): −0.342; Dose.FC.CTG (log2 fold change) (ENR+CD organoids; dose 2.00 uM): −0.116; Dose.FC.CTG (log2 fold change) (ENR+CD organoids; dose 10.00 uM): −0.706 |
| BAM7 | 0.079 | 0.039 | 0.019 | −0.020 | 0.045 | 0.391 | −0.009 | −0.082 | 0.057 | 0.498 | −0.007 | −0.063 | 0.209 | 0.498 | −0.010 | −0.024 | −0.156 | −0.373 | −0.114 | −0.272 |  |
| Nc1cccc2c1C(=O)N(C1CCC(=O)NC1=O)C2=O (centres unmarked) [Pomalidomide] |  |  |  |  |  |  |  |  |  |  |  |  |  |  |  |  |  |  |  |  | Dose.FC.LYZ.S [1, 19]: −0.028 log2 fold change; Dose.FC.LYZ.S [1, 20]: −0.082 log2 fold change; Dose.FC.LYZ.S [1, 21]: −0.115 log2 fold change; Dose.FC.LYZ.S [1, 22]: −0.205 log2 fold change; Z.LYZ.NS [2, 8]: −0.019; Z.LYZ.NS [2, 10]: −0.013; Z.LYZ.NS [2, 12]: −0.334; Z.LYZ.NS [2, 14]: −1.098; Dose.FC.LYZ.NS ([2]; primary screen; dose 0.08 uM; FC vs plate median): −0.002 log2 fold change; Dose.FC.LYZ.NS ([2]; primary screen; dose 0.40 uM; FC vs plate median): −0.001 log2 fold change; Dose.FC.LYZ.NS ([2]; primary screen; dose 2.00 uM; FC vs plate median): −0.038 log2 fold change; Dose.FC.LYZ.NS ([2]; primary screen; dose 10.00 uM; FC vs plate median): −0.126 log2 fold change; Dose.FC.CTG (ENR+CD organoids; [19]): 0.063 log2 fold change; Dose.FC.CTG (ENR+CD organoids; [20]): 0.224 log2 fold change; Dose.FC.CTG (ENR+CD organoids; [21]): −0.216 log2 fold change; Dose.FC.CTG (ENR+CD organoids; [22]): −0.305 log2 fold change |
| COc1ccc2nc([S@@+]([O-])Cc3ncc(C)c(OC)c3C)[nH]c2c1 [Esomeprazole Sodium] | 0.146 | 0.174 | 0.043 | 0.021 | 0.086 |  | 0.233 |  | 0.034 |  | −0.016 |  | 0.288 |  | 0.199 |  | 0.386 |  | 0.271 |  | Z.LYZ.NS [2, 15]: 0.747; Z.LYZ.NS [2, 16]: 2.030; Z.LYZ.NS [2, 17]: 0.300; Z.LYZ.NS [2, 18]: −0.139 |
| S3I-201 |  |  |  |  |  |  |  |  |  |  |  |  |  |  |  |  |  |  |  |  | Dose.FC.LYZ.S [1, 3]: 0.033 log2 fold change; Dose.FC.LYZ.S [1, 4]: 0.157 log2 fold change; Dose.FC.LYZ.S [1, 5]: −0.004 log2 fold change; Dose.FC.LYZ.S [1, 6]: −0.052 log2 fold change; Dose.FC.LYZ.NS [2, 7]: 0.051 log2 fold change; Z.LYZ.NS [2, 8]: 0.445; Dose.FC.LYZ.NS [2, 9]: 0.061 log2 fold change; Z.LYZ.NS [2, 10]: 0.527; Dose.FC.LYZ.NS [2, 11]: 0.024 log2 fold change; Z.LYZ.NS [2, 12]: 0.212; Dose.FC.LYZ.NS [2, 13]: −0.016 log2 fold change; Z.LYZ.NS [2, 14]: −0.143; Dose.FC.CTG (ENR+CD organoids; [3]): 0.321 log2 fold change; Z.CTG (ENR+CD organoids; dose 0.08 uM): 0.766; Dose.FC.CTG (ENR+CD organoids; [4]): 0.160 log2 fold change; Z.CTG (ENR+CD organoids; dose 0.40 uM): 0.382; Dose.FC.CTG (ENR+CD organoids; [5]): 0.079 log2 fold change; Z.CTG (ENR+CD organoids; dose 2.00 uM): 0.188; Dose.FC.CTG (ENR+CD organoids; [6]): −0.140 log2 fold change; Z.CTG (ENR+CD organoids; dose 10.00 uM): −0.334 |

Source: patent US20220323406A1, “METHODS AND COMPOSITIONS FOR DIFFERENTIATING STEM CELLS” (Massachusetts Institute of Technology, priority 2019, published 2022)
